How the values were obtained:
sugar beet = assay: Test B pre/postemergence sugar beet; assay type: in vivo, Beta vulgaris
Method in brief: (§1)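 Test chemicals in a non-phytotoxic solvent mixture with surfactant were sprayed preemergence onto planted seeds and postemergence onto plants 2 to 18 cm tall (1- to 4-leaf stage). After twelve to sixteen days in a greenhouse, injury was visually rated against untreated controls from 0 (no effect) to 10 (complete control).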

pigweed = assay: Test B pre/postemergence pigweed; assay type: in vivo, Amaranthus retroflexus
Method in brief: as §1

purple nutsedge = assay: Test B pre/postemergence purple nutsedge; assay type: in vivo, Cyperus rotundus
Method in brief: as §1

wild oat = assay: Test B pre/postemergence wild oat; assay type: in vivo, Avena fatua
Method in brief: as §1

bamyardgrass = assay: Test B flood test barnyardgrass; assay type: in vivo, Echinochloa crus-galli
Method in brief: (§2)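 Flood test on plants grown to the 2-leaf stage; treated plants kept in greenhouse twelve to sixteen days, then visually rated against controls on a 0 (no effect) to 10 (complete control) scale.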

giant foxtail = assay: Test B pre/postemergence giant foxtail; assay type: in vivo, Setaria faberii
Method in brief: as §1

crabgrass = assay: Test B pre/postemergence crabgrass; assay type: in vivo, Digitaria sanguinalis
Method in brief: as §1

wheat = assay: Test B pre/postemergence wheat; assay type: in vivo, Triticum aestivum
Method in brief: as §1

smallflower flatsedge = assay: Test B flood test smallflower flatsedge; assay type: in vivo, Cyperus difformis
Method in brief: as §2

surinam grass = assay: Test B pre/postemergence surinam grass; assay type: in vivo, Brachiaria decumbens
Method in brief: as §1

morningglory = assay: Test B pre/postemergence morningglory; assay type: in vivo, Ipomoea hederacea
Method in brief: as §1

bedstraw = assay: Test B pre/postemergence bedstraw; assay type: in vivo, Galium aparine
Method in brief: as §1

rice = assay: Test B flood test rice; assay type: in vivo, Oryza sativa
Method in brief: as §2

blackgrass = assay: Test B pre/postemergence blackgrass; assay type: in vivo, Alopecurus myosuroides
Method in brief: as §1

corn = assay: Test B pre/postemergence corn; assay type: in vivo, Zea mays
Method in brief: as §1

rape = assay: Test B pre/postemergence rape; assay type: in vivo, Brassica napus
Method in brief: as §1

[1] = Preemergence, Rate 62 g/ha, scale of 0 to 10 where 0 is no effect and 10 is complete control
[2] = Preemergence, Rate 250 g/ha, scale of 0 to 10 where 0 is no effect and 10 is complete control
[3] = Preemergence, Rate 500 g/ha, scale of 0 to 10 where 0 is no effect and 10 is complete control
[4] = Rate 62 g/ha, Postemergence, scale 0 to 10 (0 no effect, 10 complete control)
[5] = Rate 125 g/ha, Postemergence, scale of 0 to 10 where 0 is no effect and 10 is complete control
[6] = Rate 250 g/ha, Postemergence, scale of 0 to 10 where 0 is no effect and 10 is complete control
[7] = Rate 500 g/ha, Postemergence, scale 0 to 10, 0 no effect, 10 complete control
[8] = Rate 62 g/ha, headed Pre-emergence (flood test species), scale 0 to 10 (0 no effect, 10 complete control)
[9] = Rate 125 g/ha, Pre-emergence, flood test species, scale 0 to 10 where 0 is no effect and 10 is complete control
[10] = Rate 250 g/ha, Pre-emergence, flood-test species, scale 0 to 10, 0 is no effect, 10 is complete control
[11] = Rate 500 g/ha, Pre-emergence, flood test species, scale 0 to 10 (0 no effect, 10 complete control)

## C=CCn1c(=O)on(C(=O)N(c2ccc(Cl)cc2)C(C)C2CC2)c1=O (centres unmarked) [Compound 325]
Sugar beet; [1]
  Sugarbeets plant response rating: 0
Sugar beet; Preemergence, Rate 125 g/ha
  Sugarbeets plant response rating (0 to 10 scale): 0
Sugar beet; [2]
  Sugarbeets plant response rating: 0
Sugar beet; [3]
  Sugarbeets plant response rating: 0
Sugar beet; [4]
  Sugarbeets plant response rating: 0
Sugar beet; [5]
  Sugarbeets plant response rating: 0
Sugar beet; [6]
  Plant response rating, Sugarbeets: 0
Sugar beet; [7]
  Plant response rating, Sugarbeets: 0
pigweed; [1]
  Redroot pigweed plant response rating: 0
pigweed; Preemergence, Rate 125 g/ha
  Redroot pigweed plant response rating (0 to 10 scale): 0
pigweed; [2]
  Redroot pigweed plant response rating: 0
pigweed; [3]
  Redroot pigweed plant response rating: 0
pigweed; [4]
  Redroot pigweed plant response rating: 0
pigweed; [5]
  Redroot pigweed plant response rating: 0
pigweed; [6]
  Plant response rating, Redroot pigweed: 4
pigweed; [7]
  Plant response rating, Redroot pigweed: 7
Purple nutsedge; [1]
  Nutsedge plant response rating: 0
Purple nutsedge; Preemergence, Rate 125 g/ha
  Nutsedge plant response rating (0 to 10 scale): 0
Purple nutsedge; [2]
  Nutsedge plant response rating: 0
Purple nutsedge; [4]
  Nutsedge plant response rating: 0
Purple nutsedge; [5]
  Nutsedge plant response rating: 0
Purple nutsedge; [6]
  Plant response rating, Nutsedge: 0
Purple nutsedge; [7]
  Plant response rating, Nutsedge: 0
Wild oat; [1]
  Wild oats plant response rating: 0
Wild oat; Preemergence, Rate 125 g/ha
  Wild oats plant response rating (0 to 10 scale): 0
Wild oat; [2]
  Wild oats plant response rating: 0
Wild oat; [3]
  Wild oats plant response rating: 2
Wild oat; [4]
  Wild oats plant response rating: 0
Wild oat; [5]
  Wild oats plant response rating: 0
Wild oat; [6]
  Plant response rating, Wild oats: 0
Wild oat; [7]
  Plant response rating, Wild oats: 4
bamyardgrass; [8]
  Barnyardgrass plant response rating: 0
bamyardgrass; [9]
  Barnyardgrass plant response rating: 0
bamyardgrass; [10]
  Barnyardgrass plant response rating: 0
bamyardgrass; [11]
  Barnyardgrass plant response rating: 0
Giant foxtail; [1]
  Giant foxtail plant response rating: 3
Giant foxtail; Preemergence, Rate 125 g/ha
  Giant foxtail plant response rating (0 to 10 scale): 7
Giant foxtail; [2]
  Giant foxtail plant response rating: 8
Giant foxtail; [3]
  Giant foxtail plant response rating: 10
Giant foxtail; [4]
  Giant foxtail plant response rating: 0
Giant foxtail; [5]
  Giant foxtail plant response rating: 0
Giant foxtail; [6]
  Plant response rating, Giant foxtail: 0
Giant foxtail; [7]
  Plant response rating, Giant foxtail: 0
crabgrass; [1]
  Crabgrass plant response rating: 0
crabgrass; Preemergence, Rate 125 g/ha
  Crabgrass plant response rating (0 to 10 scale): 0
crabgrass; [2]
  Crabgrass plant response rating: 1
crabgrass; [3]
  Crabgrass plant response rating: 2
crabgrass; [4]
  Crabgrass plant response rating: 0
crabgrass; [5]
  Crabgrass plant response rating: 0
crabgrass; [6]
  Plant response rating, Crabgrass: 0
crabgrass; [7]
  Plant response rating, Crabgrass: 0
wheat; [1]
  Wheat plant response rating: 0
wheat; Preemergence, Rate 125 g/ha
  Wheat plant response rating (0 to 10 scale): 0
wheat; [2]
  Wheat plant response rating: 0
wheat; [3]
  Wheat plant response rating: 0
wheat; [4]
  Wheat plant response rating: 0
wheat; [5]
  Wheat plant response rating: 0
wheat; [6]
  Plant response rating, Wheat: 2
wheat; [7]
  Plant response rating, Wheat: 5
Smallflower flatsedge; [8]
  S. Flatsedge plant response rating: 0
Smallflower flatsedge; [9]
  S. Flatsedge plant response rating: 0
Smallflower flatsedge; [10]
  S. Flatsedge plant response rating: 0
Smallflower flatsedge; [11]
  S. Flatsedge plant response rating: 0
Surinam grass; [1]
  B. signalgrass plant response rating: 0
Surinam grass; Preemergence, Rate 125 g/ha
  B. signalgrass plant response rating (0 to 10 scale, 0 is no effect, 10 is complete control): 0
Surinam grass; [2]
  B. signalgrass plant response rating: 0
Surinam grass; [3]
  B. signalgrass plant response rating: 0
Surinam grass; [4]
  B. signalgrass plant response rating: 0
Surinam grass; [5]
  B. signalgrass plant response rating: 0
Surinam grass; [6]
  Plant response rating, B. signalgrass: 0
Surinam grass; [7]
  Plant response rating, B. signalgrass: 2
morningglory; [1]
  Morningglory plant response rating: 0
morningglory; Preemergence, Rate 125 g/ha
  Morningglory plant response rating (0 to 10 scale): 0
morningglory; [2]
  Morningglory plant response rating: 0
morningglory; [3]
  Morningglory plant response rating: 0
morningglory; [4]
  Morningglory plant response rating: 4
morningglory; [5]
  Morningglory plant response rating: 6
morningglory; [6]
  Plant response rating, Morningglory: 8
morningglory; [7]
  Plant response rating, Morningglory: 8
bedstraw; [1]
  Bedstraw plant response rating: 0
bedstraw; Preemergence, Rate 125 g/ha
  Bedstraw plant response rating (0 to 10 scale): 0
bedstraw; [2]
  Bedstraw plant response rating: 0
bedstraw; [3]
  Bedstraw plant response rating: 0
bedstraw; [4]
  Bedstraw plant response rating: 2
bedstraw; [5]
  Bedstraw plant response rating: 8
rice; [8]
  Rice plant response rating: 0
rice; [9]
  Rice plant response rating: 0
rice; [10]
  Rice plant response rating: 0
rice; [11]
  Rice plant response rating: 0
blackgrass; [1]
  Blackgrass plant response rating: 0
blackgrass; Preemergence, Rate 125 g/ha
  Blackgrass plant response rating (0 to 10 scale): 1
blackgrass; [2]
  Blackgrass plant response rating: 2
blackgrass; [3]
  Blackgrass plant response rating: 7
blackgrass; [4]
  Blackgrass plant response rating: 0
blackgrass; [5]
  Blackgrass plant response rating: 0
blackgrass; [6]
  Plant response rating, Blackgrass: 3
blackgrass; [7]
  Plant response rating, Blackgrass: 7
corn; [1]
  Corn plant response rating: 0
corn; Preemergence, Rate 125 g/ha
  Corn plant response rating (0 to 10 scale): 0
corn; [2]
  Corn plant response rating: 0
corn; [3]
  Corn plant response rating: 0
corn; [4]
  Corn plant response rating: 0
corn; [5]
  Corn plant response rating: 0
corn; [6]
  Plant response rating, Corn: 0
corn; [7]
  Plant response rating, Corn: 0
rape; [1]
  Rape plant response rating: 0
rape; Preemergence, Rate 125 g/ha
  Rape plant response rating (0 to 10 scale): 0
rape; [2]
  Rape plant response rating: 0
rape; [3]
  Rape plant response rating: 0
rape; [4]
  Rape plant response rating: 0
rape; [5]
  Rape plant response rating: 0
rape; [6]
  Plant response rating, Rape: 0
rape; [7]
  Plant response rating, Rape: 2

Source: patent US6737383B1, “Herbicidal oxadiazolidines” (priority 1999, dated 2004)
